Results on 9 molecules are retold here after patent US6737397B1, “Control of cancer growth through the interaction of [MET5]-enkephalin and the zeta receptor” (The Penn State Research Foundation, priority 1996, dated 2004).

Read-outs that look alike come from different tables or passages of the source. No end group written: not given here.

Assay [1] addresses T1, ζ-opioid receptor (Homo sapiens, UniProt Q9NZT2).
T1 sequence (Q9NZT2 1-677): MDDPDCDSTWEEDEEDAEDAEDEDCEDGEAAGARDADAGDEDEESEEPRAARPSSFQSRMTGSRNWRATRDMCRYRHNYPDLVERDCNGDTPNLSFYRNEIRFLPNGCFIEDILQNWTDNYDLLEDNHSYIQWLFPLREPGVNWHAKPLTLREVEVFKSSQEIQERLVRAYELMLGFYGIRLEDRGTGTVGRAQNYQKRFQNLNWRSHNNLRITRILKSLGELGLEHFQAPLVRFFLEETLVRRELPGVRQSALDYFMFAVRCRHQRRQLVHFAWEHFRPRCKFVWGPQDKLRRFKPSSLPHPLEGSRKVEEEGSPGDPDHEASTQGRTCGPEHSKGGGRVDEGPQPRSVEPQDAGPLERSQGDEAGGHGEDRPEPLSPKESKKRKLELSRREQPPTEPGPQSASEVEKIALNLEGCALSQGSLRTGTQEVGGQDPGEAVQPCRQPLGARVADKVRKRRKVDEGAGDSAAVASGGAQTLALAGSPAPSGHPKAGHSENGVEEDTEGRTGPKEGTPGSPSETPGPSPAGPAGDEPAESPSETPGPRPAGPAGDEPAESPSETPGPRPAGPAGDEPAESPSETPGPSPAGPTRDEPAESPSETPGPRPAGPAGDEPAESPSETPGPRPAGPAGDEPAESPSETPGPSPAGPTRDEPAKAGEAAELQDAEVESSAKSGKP
Briefly: Competition for binding of [3H][Met5]enkephalin (4.0 nM) in nuclear homogenates of HT-29 human colon tumors. More on the design: from tissue; host or cells: HT-29 human colon tumor xenografts grown in athymic nude mice; nuclear (P1) and other subcellular fractions.

Assay [2] deals with HT-29 cells. Briefly: Growth assay (cell counts) of HT-29 human colon cancer cells in culture. Format: cell-based. The following applies: 48 hr. As to the method:
In some examples, cultures of HT-29 cells were maintained in McCoy's 5A media without fetal calf serum.
(§1) Cells were seeded at equivalent amounts into 75 cm^2 flasks or into 9.6 cm^2 wells (6-well plates, Falcon) and were counted 24 hr later to determine plating efficiency. Drugs or sterile water were added beginning 24 hr after seeding (=0 hours) and both media and drugs were changed daily. All drugs were prepared in sterile water and dilutions represent final concentrations of the compounds. At appropriate times, cells were harvested with 0.05% trypsin/0.53 mM EDTA, centrifuged, and counted with a hemacytometer at 200×. Cell viability was determined by trypan blue staining. At least 2 aliquots/flask or well were counted and 2 flasks or wells/time point/treatment group were sampled.

For assay [3], the system named is COLO 205 cells. Briefly: Growth assay (cell counts) of COLO 205 human colon cancer cells. The assay is classed as cell-based. As to the method:
(§2) HT-29, WiDr, and COLO 205 cell lines were obtained from the American Type Culture Collection (Rockville, Md.). HT-29 cells were grown in McCoy's 5A media (modified), WiDr cells in Minimum Essential Media, and COLO 205 cells in RPMI 1640 media; all media contained 10% fetal calf serum, 2 mM […], 1.2% sodium bicarbonate and antibiotics (11 Units/ml penicillin, 10 μg/ml streptomycin, 10 μg/ml neomycin) in a humidified atmosphere of 7% CO2/93% air at 37° C. In some examples, cultures of HT-29 cells were maintained in McCoy's 5A media without fetal calf serum.
as §1
(§3) To examine the ubiquity of opioid activity with respect to colon cancer, two other colon cancer cell lines were investigated: COLO 205 and WiDr.

For assay [4], the system named is WiDr cells. As to the kind of experiment: Growth assay (cell counts) of WiDr human colon cancer cells. The assay is classed as cell-based. As to the method: as §2, §1, §3
Assay [5] has as its system HT-29 human colon cancer cells. As to the kind of experiment: HT-29 human colon cancer xenografts in nude mice treated with OGF and/or naloxone.

Take `CSCC[C@H](NC(=O)[C@H](Cc1ccc(OS(=O)(=O)O)cc1)NC(=O)[C@@H](N)CC(=O)O)C(=O)NCC(=O)N[C@@H](Cc1c[nH]c2ccccc12)C(=O)N[C@@H](CCSC)C(=O)N[C@@H](CC(=O)O)C(=O)N[C@@H](Cc1ccccc1)C(N)=O` [CCK-8, cholecystokinin octapeptide]: in assay [1], the “ability to compete in displacing [3H]-[Met5]-enkephalin binding” value (shortened to “ability to compete in displacing”) is “exhibit ability to compete”.
As to `CC[C@]12CCN(CC3CC3)[C@H](C(=O)c3ccc(O)cc31)[C@@H]2C` [EKC, ethylketocyclazocine], in assay [1], the IC50 is greater than 10000 µM, the Ki is greater than 10000 µM and the “ability to compete in displacing” value is recorded as “not competitive”.
For `CSCC[C@H](NC(=O)[C@H](Cc1c[nH]c2ccccc12)NC(=O)CNC(=O)[C@H](Cc1ccc(O)cc1)NC(=O)[C@H](C)NC(=O)[C@H](CCC(=O)O)NC(=O)[C@H](CCC(=O)O)NC(=O)[C@H](CCC(=O)O)NC(=O)[C@H](CCC(=O)O)NC(=O)[C@H](CCC(=O)O)NC(=O)[C@H](CC(C)C)NC(=O)[C@H](Cc1c[nH]c2ccccc12)NC(=O)[C@@H]1CCCN1C(=O)CNC(=O)[C@@H]1CCC(=O)N1)C(=O)N[C@@H](CC(=O)O)C(=O)N[C@@H](Cc1ccccc1)C(N)=O` [Gastrin], in assay [1], the IC50 was found to be 0.0775 ± 0.0075 µM and the Ki is 0.0596 ± 0.0058 µM.
The corresponding values for `C[C@H](N)C(=O)NCC(=O)N[C@H]1CSSC[C@@H](C(=O)O)NC(=O)[C@H](CO)NC(=O)[C@H]([C@@H](C)O)NC(=O)[C@H](Cc2ccccc2)NC(=O)[C@H]([C@@H](C)O)NC(=O)[C@H](CCCCN)NC(=O)[C@H](Cc2c[nH]c3ccccc23)NC(=O)[C@H](Cc2ccccc2)NC(=O)[C@H](Cc2ccccc2)NC(=O)[C@H](CC(N)=O)NC(=O)[C@H](CCCCN)NC1=O` [Somatostatin] are greater than 10 µM and greater than 10 µM.
Regarding `C=CCN1CC[C@]23c4c5ccc(O)c4O[C@H]2C(=O)CC[C@@]3(O)[C@H]1C5` [naloxone], in assay [2] (10^−6 M each), the “effect of concomitant naloxone on [Met5]-enkephalin inhibition of cell number” value is reported as “blocked the inhibitory effects”. Moreover, in assay [2] (10^−6 M), the “effect on cell growth, alone” value is “no effect on cell growth”. In addition, the “influence on growth, alone” value in assay [3] (10^−6 M) is reported as “no influence on growth”. In assay [3] (10^−6 M each), the “effect of naloxone on suppressive effects of [Met5]-enkephalin on growth” value is recorded as “eliminated”. For the same molecule, the “influence on growth, alone” value in assay [4] (10^−6 M) is recorded as “no influence on growth”. Besides, in assay [4] (10^−6 M each), the “effect of naloxone on suppressive effects of [Met5]-enkephalin on growth” value is “eliminated”. In assay [5] (5 mg/kg OGF with 10 mg/kg naloxone, or 10 mg/kg naloxone alone), the “latencies of palpable, visible, or measurable tumors or incidence of cancer versus control mice” value is given as “No differences”. In assay [5] (10 mg/kg Nal daily), the “Latency for measurable tumor appearance, days, range” value was “(10-16) days”; the “Latency for palpable tumor” value amounted to 9.3 ± 1.4 days; the “Latency for visible tumor” value came out at 10.3 ± 1.4 days; the “No. of mice with tumors 21 days after inoculation” value is reported as 4/5. Moreover, the “No. of mice with tumors 50 days after inoculation” value in assay [5] (10 mg/kg Nal daily) was 4/5. The tumor volume in assay [5] (50 days after inoculation, 10 mg/kg naloxone alone) is recorded as 1,494±517 mm^3.
Take `CC[C@H](C)[C@H](NC(=O)[C@H](C)NC(=O)[C@H](CC(N)=O)NC(=O)[C@H](CCCCN)NC(=O)[C@H](Cc1ccccc1)NC(=O)[C@H](CC(C)C)NC(=O)[C@@H](NC(=O)[C@@H](NC(=O)[C@H](CC(C)C)NC(=O)[C@@H]1CCCN1C(=O)[C@@H](NC(=O)[C@H](CCC(N)=O)NC(=O)[C@H](CO)NC(=O)[C@H](CCCCN)NC(=O)[C@H](CCC(=O)O)NC(=O)[C@H](CO)NC(=O)[C@@H](NC(=O)[C@H](CCSC)NC(=O)[C@H](Cc1ccccc1)NC(=O)CNC(=O)CNC(=O)[C@@H](N)Cc1ccc(O)cc1)[C@@H](C)O)[C@@H](C)O)C(C)C)[C@@H](C)O)C(=O)N[C@H](C(=O)N[C@@H](CCCCN)C(=O)N[C@@H](CC(N)=O)C(=O)N[C@@H](C)C(=O)N[C@@H](Cc1ccc(O)cc1)C(=O)N[C@@H](CCCCN)C(=O)N[C@@H](CCCCN)C(=O)NCC(=O)N[C@@H](CCC(=O)O)C(=O)O)[C@@H](C)CC` [β-Endorphin, β-endorphin]: in assay [1], the “less potent than [Met5]-enkephalin in displacing radiolabeled [Met5]-enkephalin binding” value amounted to 4.3 fold.
With SKF-10,047, in assay [1], the “ability to compete in displacing” value was “not competitive”. Also, in assay [1] (read-out: IC50), the IC50 came to 0.795 ± 0.005 µM. For the same molecule, the Ki in assay [1] (read-out: KI) came to 0.612 ± 0.004 µM.
For “YGGFMRGL [[Met^5]enkephalin-Arg^6-Gly^7-Leu^8, [Met^5,Arg^6,Gly^7,Leu^8]-enkephalin]”, in assay [1], the IC50 stood at 0.0375 ± 0.0075 µM and the Ki stood at 0.0289 ± 0.0058 µM.
Take dynorphin A 1-8 [Dynorphin A-(1-8)]: the “ability to compete in displacing” value in assay [1] is “not competitive”.
